Assay results as given in patent US8686003B2, “Tissue non-specific alkaline phosphatase inhibitors and uses thereof for treating vascular calcification” (Sanford-Burnham Medical Research Institute, priority 2007, dated 2014).
“Also recorded” adds a separate entry of the source. Read-outs that look alike come from different tables or passages of the source.

How the values were obtained:
[1] = tested on: endogenous pyrophosphatase activity in aortic rat rings; test: PPi hydrolysis by whole aortas ex vivo; settings: 30 μM; for PPi hydrolysis / % Inhibition: aortic rat rings ex vivo; for % Inhibition: inhibition of PPi hydrolysis
Method: Rats were sacrificed and aortas perfused with Hanks salt solution to remove blood. The aortas were then removed and, after the adventitia was dissected away, were cut into rings approximately 2 mm in length. Four rings were placed in 1 ml of DMEM without serum containing the compounds to be tested. After 90 min at 37° C., sodium PPi (final concentration 1 μM) and [^32P]Pi (final concentration 1 μCurie/ml) were added and 6 samples were removed over 4 hours. Pi was separated from PPi by adding 800 μl of 0.028 M ammonium molybdate in 0.75 M H2SO4 to the samples and extracting with 1600 μl of isobutanol and petroleum ether (4:1). ^32P was counted in the organic phase by Cerenkov radiation. Hydrolysis of PPi was linear over 4 hours and the rate was determined by linear regression.
Furthermore, to measure the degree of pyrophosphatase inhibition by the new TNAP inhibitors, an ex vivo organ culture system in whole aortas was used. For this analysis, rat rather than mouse aortas were selected, as they are larger and easier to dissect.

[2] = target: T1, human TNAP (Homo sapiens, UniProt P05186); test: Enzyme kinetic experiments, Ki and mechanism of TNAP inhibition; format: biochemical
T1 construct: made in house; host or cells: COS-1 cells, transient expression; dialyzed serum-free conditioned medium
T1 sequence (P05186 18-502 limits assumed): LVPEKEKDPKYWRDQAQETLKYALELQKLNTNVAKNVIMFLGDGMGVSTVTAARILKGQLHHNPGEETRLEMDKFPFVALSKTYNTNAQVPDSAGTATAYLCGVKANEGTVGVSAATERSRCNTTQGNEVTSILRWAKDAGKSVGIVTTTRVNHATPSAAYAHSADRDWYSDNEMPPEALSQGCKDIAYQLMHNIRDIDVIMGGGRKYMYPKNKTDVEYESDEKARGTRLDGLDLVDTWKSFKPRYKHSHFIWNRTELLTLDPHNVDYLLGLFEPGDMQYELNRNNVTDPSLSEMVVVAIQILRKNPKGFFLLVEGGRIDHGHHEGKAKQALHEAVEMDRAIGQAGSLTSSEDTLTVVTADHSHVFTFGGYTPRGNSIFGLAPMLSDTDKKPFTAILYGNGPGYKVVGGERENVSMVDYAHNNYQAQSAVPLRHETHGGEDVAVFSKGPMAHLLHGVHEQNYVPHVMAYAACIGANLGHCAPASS
Method: Expression plasmids containing a secreted epitope-tagged TNAP, PLAP and IAP were transfected into COS-1 cells for transient expression using a standard electroporation method. Medium was replaced to Opti-MEM 24 hours later, and the serum free media containing secreted proteins were collected 60 hours after electroporation. Conditioned medium was dialyzed against TBS containing 1 mM MgCl2 ad 20 μM ZnCl2 (to remove phosphate) and filtrated with a 2 μm cellulose acetate filter.
[…] TNAP, PLAP and IAP activities were adjusted to an approximate ΔA405 nm, equivalent to 1, measured after 30 min. Residual AP activity in the presence of inhibitors was expressed as percentage of the control activity. To investigate the mechanism of inhibition, double reciprocal plots of enzyme activity (expressed as mA405 nm min^−1) vs. substrate concentration were constructed, in the presence of various concentrations of added inhibitors (0-30 μM). The y-axis intercepts of the 1/v vs. 1/[S] plots, were then plotted vs. [I] to graphically extract Ki values as the x-intercept in this plot. […] Inhibitors were further tested and sorted based on their kinetic properties at pH 7.4 using PPi, the relevant natural substrate of TNAP. […] Amounts of released phosphate were measured using the Biomol Green Reagent (Biomol Research Laboratories, Inc., Plymouth Meeting, Pa.).

[3] = tested on: Enpp1−/− VSMCs; test: In vitro calcification (mineralization) of VSMC cultures; format: cell-based, mouse; settings: Enpp1−/− VSMC culture
Method: Vascular SMCs were isolated from explants using a collagenase digestion method and the smooth muscle phenotype was confirmed by RT-PCR analysis for smooth muscle α-actin. One mouse aorta provided on average, 5×10^5 cells. These cells were cultured (in triplicate) at a density of 3×10^4 cells/cm^2 using α-MEM supplemented with β-glycerophosphate (10 mM) and 50 μg/ml ascorbic acid for 3 weeks. To quantify calcium deposited in these cultures, either the o-cresolphthalein complexone method^(31) or the standard Alizarin Red method was used.

[4] = pH 7.5, 1 M Tris-HCl buffer, pNPP substrate, read-out: Ki (μM) @ pH 7.5
[5] = pH 9.8, 1 M DEA-HCl buffer, pNPP substrate, read-out: Ki (μM) @ pH 9.8

## Cn1cnnc1SC(C(=O)c1ccccc1)c1ccccc1 (stereo not drawn)
[1]
  PPi hydrolysis: 0.269 ± 0.032 nmol/g/min
  % Inhibition: 15.9%
[2]; [4]
  Ki: 6.4 ± 1.6 µM
[2]; [5]
  Ki: 5.6 ± 1.6 µM

## O=C(CSc1nnc[nH]1)NCCOc1ccccc1
[1]
  PPi hydrolysis: 0.249 ± 0.046 nmol/g/min
  % Inhibition: 22.2%
[2]; [4]
  Ki: 33 ± 5.8 µM
[2]; [5]
  Ki: 5.6 ± 0.7 µM

## Cn1ccnc1Sc1nc(Nc2ccccc2)nc(Nc2ccccc2)n1 [Compound E1]
[2]; Tables D and E, pH not given, read-out: Ki
  Ki: 5.6 µM

## Cn1ccnc1Sc1nc(Nc2ccccc2)nc(Nc2ccccc2)n1 [compound 5804079]
[1]
  PPi hydrolysis: 0.192 ± 0.041 nmol/g/min
  % Inhibition: 39.9%
[1]; rat whole aortas ex vivo
  suppression of endogenous pyrophosphatase activity (ranking): most effective
[3]
  inhibition of mineralization: most inhibitory
[2]
  potency at pH 7.5 compared with pH 9.8: more potent at pH 7.5 than at pH 9.8
[2]; Ki at physiological pH
  potency relative to levamisole: about 10 fold
[2]; pH 7.4, 0.1 mM pNPP, Na2HPO4 0-10 mM
  effect of competitive inhibitor Pi on potency: does not affect the potency; also recorded: not affected by the presence of the competitive inhibitor Pi
[2]; pH 7.4, 0.1 mM pNPP, pyrophosphate 0-40 mM
  effect of PPi on degree of inhibition: does not affect the degree of inhibition; also recorded: not affected by high concentrations of PPi
[2]; [4]
  Ki: 2.8 ± 0.4 µM
[2]; [5]
  Ki: 6.5 ± 1.4 µM

## c1ccc([C@H]2CN3CCSC3=N2)cc1 [levamisole, (6S)-6-phenyl-2,3,5,6-tetrahydro-imidazo[2,1-b][1,3]thiazole, reference compound]
[1]
  PPi hydrolysis: 0.252 ± 0.047 nmol/g/min
  % Inhibition: 21.2%
